Reference: paper PMC7565091, “Synthesis and Inhibitory Studies of Phosphonic Acid Analogues of Homophenylalanine and Phenylalanine towards Alanyl Aminopeptidases” (Biomolecules, 2020)
Where two headings read alike, the source gives them in different places.

Columns and labels:
[1] = molecular target: T1, porcine kidney alanine aminopeptidase (pAPN, EC 3.4.11.2) (Sus scrofa, UniProt P15145); experiment: Fluorogenic (Ala-AMC) enzyme inhibition assay, pAPN; type: biochemical; conditions: for Ki: racemic compounds, substrate Ala-AMC 100 µM, 50 mM Tris-HCl pH 7.20, 37 °C
T1 construct: porcine kidney alanine aminopeptidase (pAPN, EC 3.4.11.2); purchased Sigma Aldrich (Poznan, Poland); host or cells: porcine kidney (tissue-derived)
T1 sequence (P15145 1-963): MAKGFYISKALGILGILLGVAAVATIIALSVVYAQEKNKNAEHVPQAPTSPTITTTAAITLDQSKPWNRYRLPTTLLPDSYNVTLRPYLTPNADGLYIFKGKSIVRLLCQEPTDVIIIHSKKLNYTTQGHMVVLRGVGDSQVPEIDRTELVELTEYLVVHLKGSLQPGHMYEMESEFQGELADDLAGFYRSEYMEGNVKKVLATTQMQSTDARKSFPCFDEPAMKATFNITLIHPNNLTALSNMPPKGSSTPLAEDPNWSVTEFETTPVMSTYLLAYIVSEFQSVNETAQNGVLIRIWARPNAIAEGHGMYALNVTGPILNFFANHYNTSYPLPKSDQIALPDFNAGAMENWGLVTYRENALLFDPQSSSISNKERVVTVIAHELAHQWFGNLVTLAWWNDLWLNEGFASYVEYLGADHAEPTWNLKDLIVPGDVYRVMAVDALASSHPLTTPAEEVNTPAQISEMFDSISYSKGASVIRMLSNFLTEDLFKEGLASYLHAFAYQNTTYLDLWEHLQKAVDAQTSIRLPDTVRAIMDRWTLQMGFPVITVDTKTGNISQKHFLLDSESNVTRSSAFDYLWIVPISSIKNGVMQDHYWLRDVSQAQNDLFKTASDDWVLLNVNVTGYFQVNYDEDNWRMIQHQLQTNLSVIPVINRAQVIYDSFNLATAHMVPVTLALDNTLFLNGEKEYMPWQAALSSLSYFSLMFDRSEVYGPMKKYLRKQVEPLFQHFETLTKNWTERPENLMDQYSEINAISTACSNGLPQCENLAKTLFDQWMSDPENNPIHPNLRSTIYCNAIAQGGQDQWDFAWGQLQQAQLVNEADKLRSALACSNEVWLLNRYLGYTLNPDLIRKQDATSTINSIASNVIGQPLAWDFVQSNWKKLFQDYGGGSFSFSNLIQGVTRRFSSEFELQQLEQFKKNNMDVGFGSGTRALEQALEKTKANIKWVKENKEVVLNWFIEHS

[2] = molecular target: T2, Recombinant human alanine aminopeptidase (hAPN, EC 3.4.11.2) (Homo sapiens, UniProt P15144); experiment: Fluorogenic (Ala-AMC) enzyme inhibition assay, hAPN; type: biochemical; conditions: for Ki: racemic compounds, substrate Ala-AMC 50 µM, 50 mM Tris-HCl pH 7.00, 37 °C
T2 construct: purchased R&D System (Minneapolis, MN)

[3] = molecular target: T2, Recombinant human alanine aminopeptidase (hAPN, EC 3.4.11.2); conditions: data from previous studies; cited from earlier work
[4] = molecular target: T1, porcine kidney alanine aminopeptidase (pAPN, EC 3.4.11.2); conditions: data from previous studies; cited from earlier work

T2 sequence (P15144 whole entry): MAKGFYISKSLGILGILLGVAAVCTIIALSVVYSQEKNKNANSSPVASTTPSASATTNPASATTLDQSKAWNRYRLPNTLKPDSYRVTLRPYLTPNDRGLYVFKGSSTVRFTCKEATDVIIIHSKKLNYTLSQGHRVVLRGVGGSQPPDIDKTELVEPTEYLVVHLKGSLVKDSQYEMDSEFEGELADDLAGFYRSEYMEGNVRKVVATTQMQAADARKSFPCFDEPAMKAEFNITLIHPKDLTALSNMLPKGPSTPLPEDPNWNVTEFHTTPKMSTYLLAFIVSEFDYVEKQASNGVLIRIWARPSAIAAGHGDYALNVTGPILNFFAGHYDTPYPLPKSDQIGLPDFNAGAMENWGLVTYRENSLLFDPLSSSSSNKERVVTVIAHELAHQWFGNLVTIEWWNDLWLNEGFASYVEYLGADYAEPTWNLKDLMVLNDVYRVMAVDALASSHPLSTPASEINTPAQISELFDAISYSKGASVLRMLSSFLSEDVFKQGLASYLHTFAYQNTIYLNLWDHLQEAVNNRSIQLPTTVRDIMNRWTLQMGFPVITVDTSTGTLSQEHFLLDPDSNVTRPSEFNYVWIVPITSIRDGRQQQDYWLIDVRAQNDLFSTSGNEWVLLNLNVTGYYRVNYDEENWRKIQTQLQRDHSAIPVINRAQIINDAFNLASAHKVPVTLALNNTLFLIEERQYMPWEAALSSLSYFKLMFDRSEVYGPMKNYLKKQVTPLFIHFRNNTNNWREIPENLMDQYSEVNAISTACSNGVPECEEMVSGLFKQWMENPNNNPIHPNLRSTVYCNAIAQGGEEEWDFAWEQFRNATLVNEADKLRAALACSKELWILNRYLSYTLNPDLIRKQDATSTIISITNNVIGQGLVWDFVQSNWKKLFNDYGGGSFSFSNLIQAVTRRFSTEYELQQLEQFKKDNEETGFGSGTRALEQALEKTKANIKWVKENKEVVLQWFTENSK

Row | Molecule | Ki [1] [µM] | Ki [2] [µM] | melting point [°C] | further results
1 | 1-Amino-3-(2-Bromo-4-Fluorophenyl)ethylphosphonic Acid [Compound 17a] | 70 ± 6.6 | 14 ± 0.4 |  | 
2 | NC(CCc1ccc(F)c(F)c1)P(=O)(O)O (stereo not shown) [Compound 15f, 1-Amino-3-(3,4-Difluorophenyl)propylphosphonic Acid] | 1.02 ± 0.3 | 0.149 ± 0.011 | 292 to 293 | 
3 | NC(CCc1ccccc1F)P(=O)(O)O (stereo not shown) [Compound 15b, 1-Amino-3-(2-Fluorophenyl)propylphosphonic Acid] | 12.7 ± 0.8 | 0.506 ± 0.038 | 292 to 294 | 
4 | NC(CCc1ccc(F)cc1)P(=O)(O)O (stereo not shown) [Compound 15d, 1-Amino-3-(4-Fluorophenyl)propylphosphonic Acid] | 1.69 ± 0.81 | 0.249 ± 0.025 | 303 to 305 | 
5 | NC(CCc1ccccc1C(F)(F)F)P(=O)(O)O (stereo not shown) [Compound 15h, 1-Amino-3-(2-Trifluoromethylphenyl)propylphosphonic Acid] | 7.49 ± 0.58 | 0.804 ± 0.122 | 244 to 246 | 
6 | NC(CCc1ccc(C(F)(F)F)cc1)P(=O)(O)O (stereo not shown) [Compound 15g, 1-Amino-3-(4-Trifluoromethylphenyl)propylphosphonic Acid] | 0.976 ± 0.099 | 0.347 ± 0.062 | 295 to 296 | 
7 | NC(CCc1cccc(F)c1)P(=O)(O)O (stereo not shown) [Compound 15c, 1-Amino-3-(3-Fluorophenyl)propylphosphonic Acid] | 2.63 ± 0.18 | 0.129 ± 0.025 | 292 to 294 | times better inhibitor than 15a ([2]; ratio of Ki values versus compound 15a, the text says both aminopeptidases, the factor matches hAPN): 5
8 | NC(Cc1ccc(F)c(Cl)c1)P(=O)(O)O (stereo not shown) [Compound 17t] |  |  |  | Ki [3]: 0.542 ± 0.152 µM; Ki [4]: 6.93 ± 0.78 µM
9 | NC(Cc1ccc(Cl)cc1F)P(=O)(O)O (stereo not shown) [Compound 17o] |  |  |  | Ki [3]: 17.8 ± 2.09 µM; Ki [4]: 160 ± 11 µM
10 | 1-Amino-3-(4-Bromo-2-Fluorophenyl)ethylphosphonic Acid [Compound 17d] | 82.5 ± 2 | 7.36 ± 0.21 |  | 
11 | NC(Cc1ccc(Cl)c(F)c1)P(=O)(O)O (stereo not shown) [Compound 17s] |  |  |  | Ki [3]: 1.01 ± 0.16 µM; Ki [4]: 14.8 ± 0.9 µM
12 | 1-Amino-3-(4-Bromo-3-Fluorophenyl)ethylphosphonic Acid [Compound 17e] | 4.23 ± 0.44 | 0.67 ± 0.049 |  | 
13 | NC(Cc1cc(F)ccc1Br)P(=O)(O)O (stereo not shown) [Compound 17b] | 379 ± 126 | 41.7 ± 7.4 |  | 
14 | Cc1cc(=O)oc2cc(NC(=O)[C@H](C)N)ccc12 [Ala-AMC, L-alanine-4-methylcoumaryl-7-amide, reference compound] |  |  |  | Km ([1]; substrate constant, determined analogously to the literature [23], read-out: Km towards Ala-AMC, pAPN): 90 µM; Km ([2]; substrate constant, determined analogously to the literature [23], read-out: Km towards Ala-AMC, hAPN): 73 µM
15 | NC(CCc1ccc(F)cc1F)P(=O)(O)O (stereo not shown) [Compound 15e, 1-Amino-3-(2,4-Difluorophenyl)propylphosphonic Acid] | 1.71 ± 0.46 | 0.661 ± 0.105 | 304 to 306 | 
16 | NC(Cc1ccc(F)c(Br)c1)P(=O)(O)O (stereo not shown) [Compound 17c, 1-Amino-3-(3-Bromo-4-Fluorophenyl)ethylphosphonic Acid] | 2.22 ± 0.14 | 0.248 ± 0.024 |  | 
